Data on 12 compounds can be found in ChEMBL document CHEMBL1145317, “Hit-to-lead optimization of 1,4-dihydroindeno[1,2-c]pyrazoles as a novel class of KDR kinase inhibitors” (Bioorg Med Chem Lett, 2006).

The target in experiment [1] is T1, Vascular endothelial growth factor receptor 2 (Homo sapiens, UniProt P35968).
Experiment [2] has as its target T1, Vascular endothelial growth factor receptor 2. The experiment can be described thus: Inhibition of VEGF-induced human KDR phosphorylation transfected in NIH3T3 cells by ELISA. The format is functional, cell-based.
The next experiment addresses Angiopoietin-1 receptor (Homo sapiens, UniProt Q02763). The experiment can be described thus: Inhibition of Tie2 by HTRF assay.
In experiment [3] the target is Hepatocyte growth factor receptor (Homo sapiens, UniProt P08581). As to the kind of experiment: Inhibition of cMet by HTRF assay.
The target in experiment [4] is Vascular endothelial growth factor receptor 3 (Homo sapiens, UniProt P35916). The experiment can be described thus: Inhibition of FLT4 by HTRF assay.
For experiment [5], the target named is Mast/stem cell growth factor receptor Kit (Homo sapiens, UniProt P10721). As to the kind of experiment: Inhibition of cKit by HTRF assay.
In a further experiment the test system is Mus musculus. As to the kind of experiment: Activity against estradiol-induced uterine edema in orally dosed murine. The format is functional. The following applies: po.
The target in experiment [6] is Tyrosine-protein kinase Lck (Homo sapiens, UniProt P06239). As to the kind of experiment: Inhibition of Lck by HTRF assay.
The target in experiment [7] is Fibroblast growth factor receptor (Homo sapiens, UniProt P22607+P11362+P22455+P21802). As to the kind of experiment: Inhibition of FGFR by HTRF assay. The format is protein assay.
Experiment [8] addresses Vascular endothelial growth factor receptor 1 (Homo sapiens, UniProt P17948). As to the kind of experiment: Inhibition of FLT1 by HTRF assay.
Experiment [9] deals with Platelet-derived growth factor receptor (Homo sapiens, UniProt P09619+P16234). As to the kind of experiment: Inhibition of PDGFR by HTRF assay. It is filed as protein-complex assay.

T1 sequence (P35968 whole entry): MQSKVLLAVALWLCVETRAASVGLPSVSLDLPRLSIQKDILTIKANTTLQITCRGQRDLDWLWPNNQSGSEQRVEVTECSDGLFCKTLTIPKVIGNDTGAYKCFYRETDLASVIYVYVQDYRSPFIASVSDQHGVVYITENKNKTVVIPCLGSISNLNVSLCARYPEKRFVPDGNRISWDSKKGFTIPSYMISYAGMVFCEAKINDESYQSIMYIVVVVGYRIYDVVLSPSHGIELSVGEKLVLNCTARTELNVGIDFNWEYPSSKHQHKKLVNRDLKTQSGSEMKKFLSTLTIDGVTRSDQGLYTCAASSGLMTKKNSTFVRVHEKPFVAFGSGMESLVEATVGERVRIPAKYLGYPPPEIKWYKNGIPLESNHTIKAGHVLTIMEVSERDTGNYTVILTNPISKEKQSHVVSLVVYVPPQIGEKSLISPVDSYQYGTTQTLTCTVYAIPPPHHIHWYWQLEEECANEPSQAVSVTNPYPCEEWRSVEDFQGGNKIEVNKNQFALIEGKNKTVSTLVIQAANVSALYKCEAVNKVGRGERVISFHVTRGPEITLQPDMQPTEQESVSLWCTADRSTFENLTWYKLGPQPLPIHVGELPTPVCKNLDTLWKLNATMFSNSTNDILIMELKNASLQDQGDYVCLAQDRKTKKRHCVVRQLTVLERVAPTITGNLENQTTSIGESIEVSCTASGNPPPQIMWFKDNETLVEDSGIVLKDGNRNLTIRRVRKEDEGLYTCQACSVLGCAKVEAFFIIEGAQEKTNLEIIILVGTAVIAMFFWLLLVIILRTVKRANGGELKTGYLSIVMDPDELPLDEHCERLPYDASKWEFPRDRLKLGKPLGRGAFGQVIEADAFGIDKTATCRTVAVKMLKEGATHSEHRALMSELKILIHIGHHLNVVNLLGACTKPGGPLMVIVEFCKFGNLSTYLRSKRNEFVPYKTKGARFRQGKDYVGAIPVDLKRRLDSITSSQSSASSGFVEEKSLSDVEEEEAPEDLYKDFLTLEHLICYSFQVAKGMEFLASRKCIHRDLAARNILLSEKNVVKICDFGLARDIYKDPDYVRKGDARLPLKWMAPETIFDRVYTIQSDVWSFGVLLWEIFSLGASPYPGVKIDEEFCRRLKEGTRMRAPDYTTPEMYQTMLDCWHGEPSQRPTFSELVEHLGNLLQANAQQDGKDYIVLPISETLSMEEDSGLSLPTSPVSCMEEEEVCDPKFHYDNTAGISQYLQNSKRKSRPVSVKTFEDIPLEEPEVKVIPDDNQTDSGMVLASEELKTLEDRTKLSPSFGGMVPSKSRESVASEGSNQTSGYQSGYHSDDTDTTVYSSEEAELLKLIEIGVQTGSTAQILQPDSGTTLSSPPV
Chain of Mast/stem cell growth factor receptor Kit (P10721 whole entry): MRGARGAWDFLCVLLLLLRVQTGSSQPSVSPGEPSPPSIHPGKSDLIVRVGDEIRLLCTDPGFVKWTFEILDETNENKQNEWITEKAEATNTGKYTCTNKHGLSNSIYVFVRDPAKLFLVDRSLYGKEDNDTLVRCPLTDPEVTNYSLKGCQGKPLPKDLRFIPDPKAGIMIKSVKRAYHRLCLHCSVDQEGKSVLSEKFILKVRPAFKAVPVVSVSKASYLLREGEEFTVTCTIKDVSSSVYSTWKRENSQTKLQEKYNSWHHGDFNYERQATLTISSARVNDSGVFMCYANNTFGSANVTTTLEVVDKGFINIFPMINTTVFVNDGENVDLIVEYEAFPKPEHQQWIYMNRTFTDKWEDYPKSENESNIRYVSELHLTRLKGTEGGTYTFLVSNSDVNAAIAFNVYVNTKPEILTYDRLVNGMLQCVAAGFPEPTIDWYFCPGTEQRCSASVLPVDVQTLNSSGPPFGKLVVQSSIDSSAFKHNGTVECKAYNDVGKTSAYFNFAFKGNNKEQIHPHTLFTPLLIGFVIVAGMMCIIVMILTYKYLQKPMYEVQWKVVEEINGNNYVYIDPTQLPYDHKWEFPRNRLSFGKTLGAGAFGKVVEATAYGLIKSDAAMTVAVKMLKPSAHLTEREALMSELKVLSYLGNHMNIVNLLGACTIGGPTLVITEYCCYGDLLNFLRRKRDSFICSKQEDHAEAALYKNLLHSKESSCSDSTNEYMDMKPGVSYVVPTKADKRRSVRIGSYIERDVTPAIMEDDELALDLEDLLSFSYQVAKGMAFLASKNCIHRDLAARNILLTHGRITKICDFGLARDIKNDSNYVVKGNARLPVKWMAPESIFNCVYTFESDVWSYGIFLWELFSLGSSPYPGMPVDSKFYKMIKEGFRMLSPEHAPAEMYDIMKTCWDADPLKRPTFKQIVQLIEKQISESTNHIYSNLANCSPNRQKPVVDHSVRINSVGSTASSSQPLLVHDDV
Chain of Angiopoietin-1 receptor (Q02763 whole entry): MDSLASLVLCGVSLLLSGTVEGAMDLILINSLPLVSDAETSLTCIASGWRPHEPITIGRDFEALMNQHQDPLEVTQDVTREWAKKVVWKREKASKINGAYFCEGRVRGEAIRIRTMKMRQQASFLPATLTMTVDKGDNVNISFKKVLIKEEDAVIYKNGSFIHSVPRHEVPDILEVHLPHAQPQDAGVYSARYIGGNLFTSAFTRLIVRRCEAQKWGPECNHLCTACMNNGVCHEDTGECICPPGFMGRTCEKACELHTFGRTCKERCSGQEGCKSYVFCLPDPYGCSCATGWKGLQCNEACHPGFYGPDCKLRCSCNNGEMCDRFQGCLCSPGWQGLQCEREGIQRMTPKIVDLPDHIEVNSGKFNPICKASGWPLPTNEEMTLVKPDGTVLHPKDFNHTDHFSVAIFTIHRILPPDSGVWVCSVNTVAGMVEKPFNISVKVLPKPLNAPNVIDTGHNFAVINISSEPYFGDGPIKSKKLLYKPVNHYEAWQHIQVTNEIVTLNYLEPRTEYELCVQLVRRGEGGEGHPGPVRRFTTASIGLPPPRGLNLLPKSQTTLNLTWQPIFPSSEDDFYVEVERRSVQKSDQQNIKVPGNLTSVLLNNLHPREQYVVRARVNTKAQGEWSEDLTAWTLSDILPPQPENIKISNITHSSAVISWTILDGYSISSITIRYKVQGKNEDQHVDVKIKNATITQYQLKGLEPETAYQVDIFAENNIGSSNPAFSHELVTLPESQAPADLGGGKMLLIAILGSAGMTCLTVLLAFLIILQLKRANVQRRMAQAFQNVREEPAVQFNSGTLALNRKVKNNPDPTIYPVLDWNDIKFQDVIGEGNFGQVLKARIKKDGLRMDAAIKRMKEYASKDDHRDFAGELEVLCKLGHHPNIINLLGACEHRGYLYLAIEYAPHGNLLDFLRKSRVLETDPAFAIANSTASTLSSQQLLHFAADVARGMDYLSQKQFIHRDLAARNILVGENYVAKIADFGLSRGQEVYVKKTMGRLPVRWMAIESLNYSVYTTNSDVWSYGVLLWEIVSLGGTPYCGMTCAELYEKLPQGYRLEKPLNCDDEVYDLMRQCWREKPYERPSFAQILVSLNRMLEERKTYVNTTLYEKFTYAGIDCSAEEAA
Chain of Vascular endothelial growth factor receptor 1 (P17948 whole entry): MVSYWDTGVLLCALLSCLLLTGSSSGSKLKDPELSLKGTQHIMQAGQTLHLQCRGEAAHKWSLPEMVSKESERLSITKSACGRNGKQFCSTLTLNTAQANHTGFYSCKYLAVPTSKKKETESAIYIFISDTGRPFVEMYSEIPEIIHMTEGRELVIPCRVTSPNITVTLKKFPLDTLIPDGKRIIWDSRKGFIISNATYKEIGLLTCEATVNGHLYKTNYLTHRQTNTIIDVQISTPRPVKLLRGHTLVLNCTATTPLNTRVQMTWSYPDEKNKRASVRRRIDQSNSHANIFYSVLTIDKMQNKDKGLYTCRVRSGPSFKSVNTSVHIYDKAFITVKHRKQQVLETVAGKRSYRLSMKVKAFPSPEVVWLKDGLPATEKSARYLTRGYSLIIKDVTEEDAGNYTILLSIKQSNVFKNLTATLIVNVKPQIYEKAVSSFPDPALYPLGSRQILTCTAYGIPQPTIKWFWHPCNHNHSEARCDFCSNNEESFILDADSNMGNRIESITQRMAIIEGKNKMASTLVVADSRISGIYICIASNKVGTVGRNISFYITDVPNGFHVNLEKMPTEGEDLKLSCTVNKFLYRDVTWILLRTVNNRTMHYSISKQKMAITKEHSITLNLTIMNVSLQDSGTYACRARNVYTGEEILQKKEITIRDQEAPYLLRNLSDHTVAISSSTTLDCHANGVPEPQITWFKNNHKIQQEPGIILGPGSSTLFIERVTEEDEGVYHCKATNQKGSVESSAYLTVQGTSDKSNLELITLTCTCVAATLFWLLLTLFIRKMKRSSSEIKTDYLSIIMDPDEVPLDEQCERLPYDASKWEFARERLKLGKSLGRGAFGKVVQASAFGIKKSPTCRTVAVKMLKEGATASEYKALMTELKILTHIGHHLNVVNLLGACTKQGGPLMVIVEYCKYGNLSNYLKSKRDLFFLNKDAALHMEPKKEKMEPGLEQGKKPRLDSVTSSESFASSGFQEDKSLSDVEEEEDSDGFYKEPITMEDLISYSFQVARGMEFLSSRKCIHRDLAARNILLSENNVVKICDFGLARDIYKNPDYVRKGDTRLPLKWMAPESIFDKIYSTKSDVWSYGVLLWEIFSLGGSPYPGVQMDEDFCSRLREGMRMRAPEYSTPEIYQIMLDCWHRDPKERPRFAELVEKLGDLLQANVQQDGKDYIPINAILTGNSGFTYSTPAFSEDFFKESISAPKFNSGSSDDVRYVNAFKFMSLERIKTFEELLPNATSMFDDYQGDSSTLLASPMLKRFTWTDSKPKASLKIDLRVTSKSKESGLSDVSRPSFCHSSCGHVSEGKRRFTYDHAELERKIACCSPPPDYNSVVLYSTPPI

`CC(C)N1CCN(Cc2ccc3c(c2)-c2n[nH]c(-c4ccsc4)c2C3)CC1` registered an IC50 in experiment [1] of 0.19 µM.

With `O=CN1CCN(Cc2ccc3c(c2)-c2n[nH]c(-c4ccsc4)c2C3)CC1`, in experiment [1], the IC50 worked out at 0.665 µM.

Compound `Cc1ccsc1-c1[nH]nc2c1Cc1cc(CN3CCN(C)CC3)ccc1-2` showed an IC50 in [1] above 50 µM.

For `CN1CCN(Cc2ccc3c(c2)Cc2c-3n[nH]c2-c2cc3ccccc3s2)CC1`, in experiment [1], the half-inhibitory concentration (IC50) is above 50 µM.

As to `c1cn(Cc2ccc3c(c2)-c2[nH]nc(-c4ccsc4)c2C3)cn1`, the IC50 in experiment [1] is 0.147 µM; in experiment [2], 0.293 µM; against Angiopoietin-1 receptor, 17.6 µM; in experiment [3], above 50 µM; in experiment [4] it was 0.169 µM; in [5] it was 0.103 µM. Besides, the concentration for half-maximal inhibition (IC50) in [6] was 21.1 µM; in experiment [7], 34.355 µM; in experiment [8], 0.601 µM. The compound also gave an ED50 with Mus musculus of 20 mg/kg.

For `c1ncn(Cc2ccc3c(c2)-c2n[nH]c(-c4ccsc4)c2C3)n1`, the 50% inhibitory concentration (IC50) in experiment [1] was determined as 0.108 µM.

In [1], `CCN(CC)Cc1ccc2c(c1)-c1n[nH]c(-c3ccsc3)c1C2` had a 50% inhibitory concentration (IC50) of 0.824 µM.

Regarding `CN1CCN(Cc2ccc3c(c2)-c2[nH]nc(-c4ccsc4)c2C3)CC1`, the IC50 in [1] was 0.18 µM; against Angiopoietin-1 receptor it was 47.8 µM; in [3], above 50 µM; in experiment [4] it was 1.57 µM; in [5], 0.145 µM; in experiment [6], above 50 µM. Besides, the IC50 in [7] is above 50 µM; in experiment [8] it was 0.97 µM; in experiment [9] it was above 50 µM.

The compound `CN1CCN(CCc2ccc3c(c2)-c2n[nH]c(-c4ccsc4)c2C3)CC1` returned a half-inhibitory concentration (IC50) in experiment [1] of 0.143 µM.

`c1cn(Cc2ccc3c(c2)-c2[nH]nc(-c4ccsc4)c2C3)nn1` came in with a half-inhibitory concentration (IC50) in experiment [1] of 0.19 µM.

`CN1CCN(C(=O)c2ccc3c(c2)-c2[nH]nc(-c4ccsc4)c2C3)CC1` showed a 50% inhibitory concentration (IC50) in [1] of 4.08 µM.

On to `CN1CCN(c2ccc3c(c2)Cc2c(-c4cccs4)n[nH]c2-3)CC1`, for which 1000 µM corresponded to half-maximal inhibition in [1] (IC50).
